Measured values as given in patent US9434763B2, “Derivatives of pyridinone as inhibitors for tissue transglutaminase” (ZEDIRA GMBH, priority 2012, dated 2016).

How the values were obtained:
TG3 (transglutaminase 3) = target: T1, TG3 (transglutaminase 3) (Homo sapiens, UniProt Q08188); assay: Comparative transglutaminase selectivity assay with casein and dansylcadaverine as substrates: TG3; type: biochemical; conditions: casein as substrate
T1 construct: purchased Zedira T012
T1 sequence (Q08188 1-693): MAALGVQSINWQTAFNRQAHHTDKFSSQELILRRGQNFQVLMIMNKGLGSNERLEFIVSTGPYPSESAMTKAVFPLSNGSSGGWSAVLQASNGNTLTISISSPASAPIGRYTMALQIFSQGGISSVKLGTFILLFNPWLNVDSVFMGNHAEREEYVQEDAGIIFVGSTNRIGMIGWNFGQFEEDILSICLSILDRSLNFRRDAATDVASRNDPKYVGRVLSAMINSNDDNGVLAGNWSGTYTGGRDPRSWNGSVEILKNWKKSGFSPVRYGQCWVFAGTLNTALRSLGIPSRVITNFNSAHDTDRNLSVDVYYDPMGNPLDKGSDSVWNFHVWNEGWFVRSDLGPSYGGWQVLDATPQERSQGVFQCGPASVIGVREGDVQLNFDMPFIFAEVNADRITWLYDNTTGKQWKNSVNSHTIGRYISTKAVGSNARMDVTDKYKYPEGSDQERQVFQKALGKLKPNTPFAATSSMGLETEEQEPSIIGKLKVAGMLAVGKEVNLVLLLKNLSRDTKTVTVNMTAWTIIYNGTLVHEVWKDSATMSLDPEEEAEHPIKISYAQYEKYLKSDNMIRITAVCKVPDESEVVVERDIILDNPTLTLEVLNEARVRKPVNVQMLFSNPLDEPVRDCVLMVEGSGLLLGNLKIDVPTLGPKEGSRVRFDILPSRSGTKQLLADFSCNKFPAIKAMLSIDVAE
Text: The comparative determination of different transglutaminases to determine the selectivity was made with casein and dansylcadaverine as substrates. Therefore, the kit T036 (Zedira, Darmstadt; Refs: Lorand et al, Anal Biochem, 1971, 44:221-31) as well as transglutaminase products T009 (transglutaminase 1), T012 (transglutaminase 3), T021 (transglutaminase 6) and T027 (plasma transglutaminase, factor XIII) are used. Therefore, two different IC50 values for the compounds are given.
The evaluation of the resulting enzyme activity is done using the slope of the straight line obtained by the increase in fluorescence.
To determine the non-inhibited enzyme activity, DMSO instead of inhibitor stock solution is used. IC50 values are determined by plotting the resulting enzyme activity against the logarithm of the inhibitor concentration. IC50 is defined as the concentration of inhibitor resulting in 50% of enzyme activity.
It should be noted that it was measured here against casein as substrate, which is why other apparent inhibition values (IC50 value) result.

[1] = tested on: Huh 7 (human hepatome-cell line); assay: Cytotoxicity: metabolic activity, EZ4U-Assay, Huh 7; type: cell-based
Method: (§1) Huh 7 (human hepatome-cell line) and CaCo2 (human colon carcinoma-cell line) were seeded to 96 well plates in Dulbecco's Modified Eagle's Medium (DMEM)/10% fetal calf serum (FCS) and cultivated. The method is known to the skilled person.
[…] The determination of the proliferation was carried out using the Cell Proliferation ELISA, BrdU (Roche 11 647 229 001): 24 hours after incubation of the cells with the inhibitor BrdU was added. The colorimetric development of the test was made after further 48 hours according to manufacturer's information. The extinction was measured at 450 nm. For determination of the metabolic activity using the EZ4U-Assay (Biomedica B1-5000) the tetrazolium substrate was added to the cells 48 hours after addition of the inhibitor. The capacity for reaction of the cells was measured every hour over a period of 4 hours at 450 nm against a reference filter of 630 nm. DMEM without inhibitor was added as reference in both experiments, as positive control cycloheximide (2.5 μg/ml) and camptothecin (0.2 μg/ml).

[2] = tested on: CaCo2 (human colon carcinoma-cell line); assay: Cytotoxicity: metabolic activity, EZ4U-Assay, CaCo2; type: cell-based
Method: as §1
After one hour the inhibitors A63 (ZED1227), A29 (ZED1098) and A61 (ZED1219) were added in the concentrations 0.1 μM to 1 μM. The determination of the proliferation was carried out using the Cell Proliferation ELISA, BrdU (Roche 11 647 229 001): 24 hours after incubation of the cells with the inhibitor BrdU was added. The colorimetric development of the test was made after further 48 hours according to manufacturer's information. The extinction was measured at 450 nm. For determination of the metabolic activity using the EZ4U-Assay (Biomedica B1-5000) the tetrazolium substrate was added to the cells 48 hours after addition of the inhibitor. The capacity for reaction of the cells was measured every hour over a period of 4 hours at 450 nm against a reference filter of 630 nm. DMEM without inhibitor was added as reference in both experiments, as positive control cycloheximide (2.5 μg/ml) and camptothecin (0.2 μg/ml).

Structure (SMILES)	IC50 (TG3 (transglutaminase 3)) [µM]	effect on metabolic activity (EZ4U) [1]	effect on metabolic activity (EZ4U) [2]
CCOC(=O)/C=C/CC[C@H](NC(=O)c1cncn1C)C(=O)Nc1cccn(CC(=O)NCCC(C)C)c1=O [A19, (S,E)-Ethyl 7-(1-(2-(isopentylamino)-2-oxoethyl)-2-oxo-1,2-dihydropyridin-3-ylamino)-6-(1-methyl-1H-imidazole-5-carboxamido)-7-oxohept-2-enoate]	128	–	–
CCOC(=O)/C=C/CC[C@H](NC(=O)CCC(=O)O)C(=O)Nc1cccn(CC(=O)NCCC(C)C)c1=O [A24, (S,E)-4-(7-Ethoxy-1-(1-(2-(isopentylamino)-2-oxoethyl)-2-oxo-1,2-dihydropyridin-3-ylamino)-1,7-dioxohept-5-en-2-ylamino)-4-oxobutanoic acid]	119	–	–
CCOC(=O)/C=C/CC[C@H](NC(C)=O)C(=O)Nc1cccn(CC(=O)N[C@H](C(=O)OC)[C@H](C)CC)c1=O [A35, (S,E)-ethyl 6-acetamido-7-(1-(2-((2S,3R)-1-methoxy-3-methyl-1-oxopentan-2-ylamino)-2-oxoethyl)-2-oxo-1,2-dihydropyridin-3-ylamino)-7-oxohept-2-enoate]	95.8	–	–
CCOC(=O)/C=C/CC[C@H](NC(C)=O)C(=O)Nc1cccn(CC(=O)NCCC(CC)CC)c1=O [A42, (S,E)-ethyl 6-acetamido-7-(1-(2-(3-ethylpentylamino)-2-oxoethyl)-2-oxo-1,2-dihydropyridin-3-ylamino)-7-oxohept-2-enoate]	104	–	–
CCOC(=O)/C=C/CC[C@H](NC(=O)c1cncn1C)C(=O)Nc1cccn(CC(=O)NCC(CC)CC)c1=O [A58, (S,E)-Ethyl 7-(1-(2-(2-ethylbutylamino)-2-oxoethyl)-2-oxo-1,2-dihydropyridin-3-ylamino)-6-(1-methyl-1H-imidazole-5-carboxamido)-7-oxohept-2-enoate]	109	–	–
CCOC(=O)/C=C/CC[C@H](NC(C)=O)C(=O)Nc1cccn(CC(=O)NCC(CC)CC)c1=O [A62, (S,E)-Ethyl 6-acetamido-7-(1-(2-(2-ethylbutylamino)-2-oxoethyl)-2-oxo-1,2-dihydropyridin-3-ylamino)-7-oxohept-2-enoate]	99.7	–	–
COC(=O)/C=C/CC[C@H](NC(C)=O)C(=O)Nc1cccn(CC(=O)N2CCCC(C)C2)c1=O (stereo partly drawn) [A64, (6S,E)-Methyl 6-acetamido-7-(1-(2-(3-methylpipendin-1-yl)-2-oxoethyl)-2-oxo-1,2-dihydropyridin-3-ylamino)-7-oxohept-2-enoate]	125	–	–
COC(=O)/C=C/CC[C@H](NC(C)=O)C(=O)Nc1cccn(CC(=O)N2CCC(C(F)(F)F)CC2)c1=O [A65, (S,E)-Methyl 6-acetamido-7-oxo-7-(2-oxo-1-(2-oxo-2-(4-(trifluoromethyl)piperidin-1-yl)ethyl)-1,2-dihydropyridin-3-ylamino)hept-2-enoate]	100	–	–

Compounds with a lower IC50 (TG3 (transglutaminase 3)), results first:

IC50 (TG3 (transglutaminase 3)) [µM]	Structure (SMILES)	effect on metabolic activity (EZ4U) [1]	effect on metabolic activity (EZ4U) [2]
84.1	CCOC(=O)/C=C/CC[C@H](NC(C)=O)C(=O)Nc1cccn(CC(=O)NCCC(C)C)c1=O [A7, (S,E)-Ethyl 6-acetamido-7-(1-(2-(isopentylamino)-2-oxoethyl)-2-oxo-1,2-dihydropyridin-3-ylamino)-7-oxohept-2-enoate]	–	–
73.9	CCC(CC)CNC(=O)Cn1cccc(NC(=O)[C@H](CC/C=C/C(=O)OC)NC(=O)c2cncn2C)c1=O [A63, (S,E)-Methyl 7-(1-(2-(2-ethylbutylamino)-2-oxoethyl)-2-oxo-1,2-dihydropyridin-3-ylamino)-6-(1-methyl-1H-imidazole-5-carboxamido)-7-oxohept-2-enoate]	no effect	no effect
72.6	CCOC(=O)/C=C/CC[C@H](NC(=O)c1cncn1C)C(=O)Nc1cccn(CC(=O)N[C@H](C(=O)O)[C@H](C)CC)c1=O [A53, (2S,3R)-2-(2-(3-((S,E)-7-Ethoxy-2-(1-methyl-1H-imidazole-5-carboxamido)-7-oxohept-5-enamido)-2-oxopyridin-1(2H)-yl)acetamido)-3-methylpentanoic acid]	–	–
70.9	COC(=O)/C=C/CC[C@H](NC(C)=O)C(=O)Nc1cccn(CC(=O)NCCC(C)C)c1=O [A29, (S,E)-methyl 6-acetamido-7-(1-(2-(isopentylamino)-2-oxoethyl)-2-oxo-1,2-dihydropyridin-3-ylamino)-7-oxohept-2-enoate]	no effect	no effect
69	CCOC(=O)/C=C/CC[C@H](NC(=O)CCC(=O)O)C(=O)Nc1cccn(CC(=O)NCC(CC)CC)c1=O [A30, (S,E)-4-(7-Ethoxy-1-(1-(2-(2-ethylbutylamino)-2-oxoethyl)-2-oxo-1,2-dihydropyridin-3-ylamino)-1,7-dioxohept-5-en-2-ylamino)-4-oxobutanoic acid]	–	–
59.6	CCC(CC)CNC(=O)Cn1cccc(NC(=O)[C@H](CC/C=C/C(=O)OC)NC(C)=O)c1=O [A79, (S,E)-Methyl 6-acetamido-7-(1-(2-(2-ethylbutylamino)-2-oxoethyl)-2-oxo-1,2-dihydropyridin-3-ylamino)-7-oxohept-2-enoate]	–	–
42.3	CC[C@@H](C)[C@H](NC(=O)Cn1cccc(NC(=O)[C@H](CC/C=C/C(=O)OC)NC(=O)c2cncn2C)c1=O)C(=O)O [A60, (2S,3R)-2-(2-(3-((S,E)-7-Methoxy-2-(1-methyl-1H-imidazole-5-carboxamido)-7-oxohept-5-enamido)-2-oxopyridin-1(2H)-yl)acetamido)-3-methylpentanoic acid]	–	–
41.1	CCOC(=O)/C=C/CC[C@H](NC(=O)c1ccccc1)C(=O)Nc1cccn(CC(=O)N[C@H](C(=O)O)[C@H](C)CC)c1=O [A59, (2S,3R)-2-(2-(3-((S,E)-2-Benzamido-7-ethoxy-7-oxohept-5-enamido)-2-oxopyridin-1(2H)-yl)acetamido)-3-methylpentanoic acid]	–	–
17.6	CC[C@@H](C)[C@H](NC(=O)Cn1cccc(NC(=O)[C@H](CC/C=C/C(=O)OC)NC(=O)c2ccccc2)c1=O)C(=O)O [A61, (2S,3R)-2-(2-(3-((S,E)-2-benzamido-7-methoxy-7-oxohept-5-enamido)-2-oxopyridin-1(2H)-yl)acetamido)-3-methylpentanoic acid]	no effect	no effect
